Results from patent EP1175417B1, “SUBSTITUTED BENZOLACTAM COMPOUNDS” (Pfizer Products Inc., priority 1999, dated 2000).
Where a name gives a salt, the structure may show the parent alone.

Key:
gerbils = assay: [Sar^9, Met(O2)^11]substance P-induced tapping test; format: in vivo; conditions: Meriones unguiculatus, at 0.3mg/kg scoring
Description: More specifically, gerbils are lightly anesthetized with ether and the skull surface is exposed. […] Following injection, gerbils are placed in 1 L beaker individually and monitored for repetitive hind paw tapping. Some compounds prepared in the following Examples were tested in accordance with these testing methods.

Ca^2+ channel = biological target: T1, Ca^2+ channel (Rattus norvegicus, UniProt P22002); assay: verapamil binding study in rat heart membrane preparation; conditions: [^3H]desmethoxyverapamil binding
T1 construct: from tissue; host or cells: rat heart membrane preparation
T1 sequence (P22002 whole entry, other chains not shown): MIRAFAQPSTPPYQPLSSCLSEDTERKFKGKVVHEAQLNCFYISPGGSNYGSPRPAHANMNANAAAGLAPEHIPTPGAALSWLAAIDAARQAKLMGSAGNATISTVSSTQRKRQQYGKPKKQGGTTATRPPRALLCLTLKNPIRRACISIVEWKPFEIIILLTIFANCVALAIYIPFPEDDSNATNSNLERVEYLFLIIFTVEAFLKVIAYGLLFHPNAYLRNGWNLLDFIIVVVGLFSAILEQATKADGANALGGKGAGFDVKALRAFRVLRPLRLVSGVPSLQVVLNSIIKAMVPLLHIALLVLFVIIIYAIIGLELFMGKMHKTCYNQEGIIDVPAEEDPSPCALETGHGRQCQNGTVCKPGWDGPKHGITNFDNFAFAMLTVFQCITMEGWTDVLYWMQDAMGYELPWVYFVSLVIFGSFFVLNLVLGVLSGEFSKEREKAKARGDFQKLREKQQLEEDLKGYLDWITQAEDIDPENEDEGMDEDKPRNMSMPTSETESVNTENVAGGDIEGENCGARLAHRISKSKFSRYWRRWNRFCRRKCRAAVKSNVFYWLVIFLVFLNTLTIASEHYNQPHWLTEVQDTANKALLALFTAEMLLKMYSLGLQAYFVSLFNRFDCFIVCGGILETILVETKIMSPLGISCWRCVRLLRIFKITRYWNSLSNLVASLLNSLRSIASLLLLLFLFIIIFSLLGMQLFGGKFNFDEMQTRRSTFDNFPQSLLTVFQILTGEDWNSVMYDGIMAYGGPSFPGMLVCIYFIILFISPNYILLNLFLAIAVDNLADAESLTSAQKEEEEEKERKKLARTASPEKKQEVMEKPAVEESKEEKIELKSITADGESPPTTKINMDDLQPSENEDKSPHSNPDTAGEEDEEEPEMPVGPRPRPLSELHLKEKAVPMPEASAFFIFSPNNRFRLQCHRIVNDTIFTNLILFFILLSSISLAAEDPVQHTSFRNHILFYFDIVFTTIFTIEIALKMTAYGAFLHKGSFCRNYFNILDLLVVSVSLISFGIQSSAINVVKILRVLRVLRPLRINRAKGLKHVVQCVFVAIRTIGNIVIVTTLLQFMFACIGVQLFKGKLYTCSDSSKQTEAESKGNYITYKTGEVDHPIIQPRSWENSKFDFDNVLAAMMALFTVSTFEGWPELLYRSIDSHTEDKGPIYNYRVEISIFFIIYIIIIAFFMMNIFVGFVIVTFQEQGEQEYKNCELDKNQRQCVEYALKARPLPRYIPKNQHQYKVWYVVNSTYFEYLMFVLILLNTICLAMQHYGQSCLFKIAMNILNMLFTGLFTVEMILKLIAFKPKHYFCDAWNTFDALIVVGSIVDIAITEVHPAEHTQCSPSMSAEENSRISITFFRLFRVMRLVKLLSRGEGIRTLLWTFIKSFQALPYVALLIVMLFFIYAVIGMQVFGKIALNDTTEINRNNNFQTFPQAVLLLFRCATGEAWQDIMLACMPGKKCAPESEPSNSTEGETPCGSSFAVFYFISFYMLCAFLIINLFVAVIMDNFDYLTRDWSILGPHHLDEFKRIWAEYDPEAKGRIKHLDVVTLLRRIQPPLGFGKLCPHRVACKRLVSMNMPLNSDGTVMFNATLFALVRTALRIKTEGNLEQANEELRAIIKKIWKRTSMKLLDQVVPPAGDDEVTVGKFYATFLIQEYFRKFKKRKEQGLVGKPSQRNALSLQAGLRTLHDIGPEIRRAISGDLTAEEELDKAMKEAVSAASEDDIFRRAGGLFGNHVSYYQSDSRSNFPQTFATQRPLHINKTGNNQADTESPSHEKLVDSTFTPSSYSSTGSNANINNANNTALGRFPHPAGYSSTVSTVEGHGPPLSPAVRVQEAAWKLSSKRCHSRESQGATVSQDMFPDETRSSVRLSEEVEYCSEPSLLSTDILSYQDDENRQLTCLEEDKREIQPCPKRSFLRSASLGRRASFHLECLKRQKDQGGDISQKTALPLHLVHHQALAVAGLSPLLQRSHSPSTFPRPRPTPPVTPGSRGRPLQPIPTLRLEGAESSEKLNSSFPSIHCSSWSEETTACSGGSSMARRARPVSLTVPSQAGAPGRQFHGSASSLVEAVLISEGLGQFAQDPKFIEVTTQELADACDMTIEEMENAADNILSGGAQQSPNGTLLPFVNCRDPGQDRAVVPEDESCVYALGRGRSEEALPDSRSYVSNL
T1 sequence (P54290 25-944 partner limits assumed, other chains not shown): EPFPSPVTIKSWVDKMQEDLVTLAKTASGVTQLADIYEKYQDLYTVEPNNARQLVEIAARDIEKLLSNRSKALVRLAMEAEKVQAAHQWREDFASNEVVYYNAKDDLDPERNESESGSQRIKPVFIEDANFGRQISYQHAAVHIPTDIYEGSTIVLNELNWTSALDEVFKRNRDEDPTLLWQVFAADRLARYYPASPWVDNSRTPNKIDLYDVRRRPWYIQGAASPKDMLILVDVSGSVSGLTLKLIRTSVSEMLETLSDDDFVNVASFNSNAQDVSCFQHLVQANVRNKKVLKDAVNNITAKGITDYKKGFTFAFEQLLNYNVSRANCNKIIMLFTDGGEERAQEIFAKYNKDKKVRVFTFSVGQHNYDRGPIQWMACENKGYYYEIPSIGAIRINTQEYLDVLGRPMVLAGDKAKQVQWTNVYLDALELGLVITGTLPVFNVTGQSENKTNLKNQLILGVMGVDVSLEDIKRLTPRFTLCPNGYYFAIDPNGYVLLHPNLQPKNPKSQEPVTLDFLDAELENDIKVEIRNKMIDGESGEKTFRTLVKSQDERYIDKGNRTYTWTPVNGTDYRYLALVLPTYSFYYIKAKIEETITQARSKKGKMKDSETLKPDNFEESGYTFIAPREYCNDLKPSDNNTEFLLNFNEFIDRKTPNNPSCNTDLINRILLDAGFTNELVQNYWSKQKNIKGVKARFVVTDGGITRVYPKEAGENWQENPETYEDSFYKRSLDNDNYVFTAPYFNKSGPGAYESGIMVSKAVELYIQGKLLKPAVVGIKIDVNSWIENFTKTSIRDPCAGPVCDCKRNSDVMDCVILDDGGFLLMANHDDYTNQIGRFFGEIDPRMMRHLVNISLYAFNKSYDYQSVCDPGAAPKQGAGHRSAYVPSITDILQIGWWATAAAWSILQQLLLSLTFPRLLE
T1 sequence (P54290 945-1091 partner limits assumed, other chains not shown): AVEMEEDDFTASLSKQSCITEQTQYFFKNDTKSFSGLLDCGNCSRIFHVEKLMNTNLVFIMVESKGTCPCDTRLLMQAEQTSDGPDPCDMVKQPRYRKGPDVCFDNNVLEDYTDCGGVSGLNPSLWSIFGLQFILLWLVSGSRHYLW
Description: The adverse effect on Ca^2+ channel binding affinity is determined by verapamil binding study in rat heart membrane preparation. More specifically, verapamil binding study is performed as previously described by Reynolds et al, J. Pharmacol. Exp. Ther., 237, 731 (1986). Briefly, incubations are initiated by the addition of tissue to tubes containing 0.25 nM [^3H]desmethoxyverapamil and various concentrations of compounds (total volume 1 ml). Nonspecific binding is defined as radioligand binding remaining in the presence of 3-10 µM methoxyverapamil.

[1] = biological target: T2, substance P receptor sites in IM-9 cells (Homo sapiens, UniProt P25103); assay: IM-9 binding assay (inhibition of [^3H]SP binding); conditions: inhibition of [^3H]SP binding to human IM-9 cells
T2 construct: endogenous in cells; host or cells: human IM-9 cells
T2 sequence (P25103 whole entry): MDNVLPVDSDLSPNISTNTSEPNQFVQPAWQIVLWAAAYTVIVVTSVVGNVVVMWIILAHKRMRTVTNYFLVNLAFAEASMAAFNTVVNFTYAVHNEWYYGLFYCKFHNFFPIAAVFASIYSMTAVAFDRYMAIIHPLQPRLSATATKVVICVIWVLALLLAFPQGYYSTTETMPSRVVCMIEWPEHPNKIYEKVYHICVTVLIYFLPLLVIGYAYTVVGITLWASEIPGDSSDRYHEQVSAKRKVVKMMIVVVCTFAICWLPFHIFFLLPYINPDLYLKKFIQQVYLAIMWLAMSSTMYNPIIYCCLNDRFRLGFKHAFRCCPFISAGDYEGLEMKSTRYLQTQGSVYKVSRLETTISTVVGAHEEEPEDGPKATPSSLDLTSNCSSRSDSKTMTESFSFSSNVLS
Description: The activity of the compounds of the present invention, as substance P antagonists, is determined by their ability to inhibit the binding of substance P at its receptor sites in IM-9 cells employing radioactive ligands. The substance P antagonist activity of the herein described compounds is evaluated by using the standard assay procedure described by D. G. Payan et al as reported in J. Immunology, 133, 3260 (1984). This method essentially involves determining the concentration of the individual compound required to reduce by 50% the amount of radiolabeled substance P ligands at their receptor sites in said isolated cow tissues or IM-9 cells, thereby affording characteristic IC50 values for each compound tested. More specifically, inhibition of [^3H]SP binding to human IM-9 cells by compounds are determined in assay buffer (50 mM Tris-HCl (pH 7.4), 1 mM MnCl2, 0.02 % bovine serum albumin, bacitracin (40 µg/ml), leupeptin (4 µg/ml), chymostatin (2 µg/ml) and phosphoramidon (30 µg/ml)). The reaction is initiated by the addition of cells to assay buffer containing 0.56 nM [^3H]SP and various concentrations of compounds (total volume; 0.5 ml) and allowed to incubate for 120 min at 4 °C. […] Nonspecific binding is defined as the radioactivity remaining in the presence of 1 µM SP. The filters are placed into tubes and counted using liquid scintillation counter.

COc1cc2c(cc1CN[C@H]1CCCN[C@H]1c1ccccc1)N(C)C(=O)CC2 [Compound 21, (2S,3S)-3-(6-Methoxy-1-methyl-2-oxo-1,2,3,4-tetrahydroquinolin-7-yl)methylamino-2-phenylpiperidine dihydrochloride]
inhibition at 0.3 mg/kg (gerbils): 52% | IC50 (Ca^2+ channel): > 3 µM | IC50 [1]: < 0.0001 µM
